Data on 26 compounds can be found in patent US8445503B2, “Inhibitors of polo-like kinase” (Elan Pharmaceuticals, Inc., priority 2009, dated 2013).

What is called pIC50 is the negative decadic logarithm of the IC50, by convention in mol/L.

pIC50: −log10 of the molar value. Like-named read-outs stand apart in the source and are kept apart here.

Holding throughout (format): biochemical
One experiment deals with GST-PLK1 (Homo sapiens, UniProt P53350). The experiment can be described thus: PLK TR-FRET peptide assay, PLK1. The following applies: read-out: Plk1 IC50.
Another experiment concerns the target T1, GST-PLK2 (Homo sapiens, UniProt Q9NYY3).
T1 construct: purchased CarnaBio
In words: PLK TR-FRET peptide assay, PLK2. The following applies: for pIC50: read-out: Plk2 IC50. Background: Time-resolved FRET reads energy transfer from a long-lived donor to a nearby acceptor.

The target in another experiment is T2, GST-PLK3 (Homo sapiens, UniProt Q9H4B4).
T2 construct: purchased CarnaBio
In words: PLK TR-FRET peptide assay, PLK3.

Setting [1] is: PLK TR-FRET peptide assay, GST-PLK2.
[2] abbreviates: PLK TR-FRET peptide assay, GST-PLK3; read-out: Plk3 IC50.

T1 sequence (Q9NYY3 whole entry): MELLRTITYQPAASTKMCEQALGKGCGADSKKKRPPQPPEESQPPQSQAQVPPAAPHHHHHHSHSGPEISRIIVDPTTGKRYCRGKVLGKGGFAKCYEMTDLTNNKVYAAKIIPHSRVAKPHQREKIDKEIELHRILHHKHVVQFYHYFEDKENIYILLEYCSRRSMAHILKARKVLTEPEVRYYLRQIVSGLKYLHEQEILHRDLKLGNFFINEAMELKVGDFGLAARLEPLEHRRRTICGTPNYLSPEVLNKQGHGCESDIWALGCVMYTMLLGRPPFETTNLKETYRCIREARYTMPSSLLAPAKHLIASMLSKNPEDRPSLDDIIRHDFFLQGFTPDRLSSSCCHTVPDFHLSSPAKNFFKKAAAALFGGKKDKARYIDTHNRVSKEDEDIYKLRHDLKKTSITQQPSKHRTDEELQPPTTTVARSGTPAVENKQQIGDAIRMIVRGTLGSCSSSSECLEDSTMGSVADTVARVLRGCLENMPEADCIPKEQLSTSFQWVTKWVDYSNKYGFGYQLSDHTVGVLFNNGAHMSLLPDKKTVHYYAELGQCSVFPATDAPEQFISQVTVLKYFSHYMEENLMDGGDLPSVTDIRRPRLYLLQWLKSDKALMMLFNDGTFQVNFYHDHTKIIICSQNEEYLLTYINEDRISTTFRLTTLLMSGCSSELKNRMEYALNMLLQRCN
Chain of GST-PLK1 (P53350 whole entry): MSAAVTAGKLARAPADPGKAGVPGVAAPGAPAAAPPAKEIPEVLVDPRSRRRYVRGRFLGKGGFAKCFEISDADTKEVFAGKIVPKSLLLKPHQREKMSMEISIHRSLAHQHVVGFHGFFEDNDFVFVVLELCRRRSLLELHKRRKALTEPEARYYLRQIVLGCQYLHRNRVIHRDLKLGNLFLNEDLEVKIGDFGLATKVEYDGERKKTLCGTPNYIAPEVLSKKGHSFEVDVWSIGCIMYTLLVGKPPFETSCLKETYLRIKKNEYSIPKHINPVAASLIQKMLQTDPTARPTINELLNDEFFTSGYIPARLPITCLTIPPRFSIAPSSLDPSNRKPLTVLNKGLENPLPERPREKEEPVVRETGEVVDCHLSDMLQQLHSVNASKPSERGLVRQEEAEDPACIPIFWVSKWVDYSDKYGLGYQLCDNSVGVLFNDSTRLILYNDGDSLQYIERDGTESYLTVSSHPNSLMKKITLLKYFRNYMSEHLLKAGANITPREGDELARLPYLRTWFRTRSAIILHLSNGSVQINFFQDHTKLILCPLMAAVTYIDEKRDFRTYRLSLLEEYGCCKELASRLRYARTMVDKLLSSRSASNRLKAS
T2 sequence (Q9H4B4 whole entry): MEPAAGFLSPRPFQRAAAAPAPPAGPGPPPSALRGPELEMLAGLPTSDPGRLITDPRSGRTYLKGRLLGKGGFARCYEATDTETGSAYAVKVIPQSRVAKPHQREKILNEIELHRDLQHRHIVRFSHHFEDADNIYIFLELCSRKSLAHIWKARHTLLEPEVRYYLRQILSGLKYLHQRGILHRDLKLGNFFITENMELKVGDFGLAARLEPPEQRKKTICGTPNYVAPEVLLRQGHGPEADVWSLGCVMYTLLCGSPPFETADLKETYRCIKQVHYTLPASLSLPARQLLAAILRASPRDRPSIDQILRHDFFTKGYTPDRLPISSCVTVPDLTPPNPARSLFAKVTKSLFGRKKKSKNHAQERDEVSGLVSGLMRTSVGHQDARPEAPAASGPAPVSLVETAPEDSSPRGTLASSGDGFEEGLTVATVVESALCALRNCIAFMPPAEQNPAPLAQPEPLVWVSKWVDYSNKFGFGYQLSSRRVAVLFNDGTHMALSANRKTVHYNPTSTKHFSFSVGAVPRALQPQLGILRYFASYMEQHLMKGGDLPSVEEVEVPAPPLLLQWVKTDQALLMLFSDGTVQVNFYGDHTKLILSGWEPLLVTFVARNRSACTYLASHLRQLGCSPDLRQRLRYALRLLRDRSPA

As to `CC[C@]12COCCN1c1nc(-c3snnc3-c3ccccc3)ncc1N(C)C2=O` [Example 369, (R)-6a-ethyl-5-methyl-2-(4-phenyl-1,2,3-thiadiazol-5-yl)-6a,7,9,10-tetrahydro-[1,4]oxazino[3,4-h]pteridin-6(5H)-one], the pIC50 at GST-PLK1, on GST-PLK2 (setting [1]) and on GST-PLK3 (setting [2]) was below 4.30 throughout.

For `CC[C@]12COCCN1c1nc(-n3ccnc3-c3ccc(F)cn3)ncc1N(C)C2=O` [Example 381, (R)-6a-ethyl-2-(2-(5-fluoropyridin-2-yl)-1H-imidazol-1-yl)-5-methyl-6a,7,9,10-tetrahydro-[1,4]oxazino[3,4-h]pteridin-6(5H)-one], the pIC50 on GST-PLK1, at GST-PLK2 (setting [1]) and at GST-PLK3 (setting [2]) was below 4.30 throughout.

Take `CCC1C(=O)N(C)c2cnc(-n3ccnc3-c3ccccc3)nc2N1N` (stereo not shown) [Example 278, 8-amino-7-ethyl-5-methyl-2-(2-phenyl-1H-imidazol-1-yl)-7,8-dihydropteridin-6(5H)-one]: the negative logarithm of the IC50 (pIC50) on GST-PLK1 was 4.30 to 5.00; on GST-PLK2 (setting [1]), above 6.00; on GST-PLK3 (setting [2]), 4.30 to 5.00.

With `CC[C@@H]1C(=O)N(C)c2cnc(-n3cnc(C(=O)N4CCOCC4)c3)nc2N1C1CCCC1` [Example 45, (R)-8-cyclopentyl-7-ethyl-5-methyl-2-(4-(morpholine-4-carbonyl)-1H-imidazol-1-yl)-7,8-dihydropteridin-6(5H)-one], the pIC50 at GST-PLK1 was 5.00 to 6.00; on GST-PLK2 (setting [1]), above 6.00; on GST-PLK3 (setting [2]), 4.30 to 5.00.

Regarding `CC[C@]12COCCN1c1nc(-c3cccnc3-c3ccccc3)ncc1N(C)C2=O` [Example 404], the pIC50 at GST-PLK1, at GST-PLK2 (setting [1]) and on GST-PLK3 (setting [2]) was below 4.30 each time.

For the compound `CC[C@@H]1C(=O)N(C)c2cnc(-c3nccnc3-c3ccccc3)nc2N1C1CCCC1` [Example 138, (R)-8-cyclopentyl-7-ethyl-5-methyl-2-(3-phenylpyrazin-2-yl)-7,8-dihydropteridin-6(5H)-one], the negative-log IC50 (pIC50) is above 6.00 at GST-PLK1; above 6.00 at GST-PLK2; above 6.00 at GST-PLK3 (read-out: Plk3 IC50; PLK TR-FRET peptide assay, GST-PLK3).

For the compound `CC[C@@H]1C(=O)N(C)c2cnc(-n3cnc(-c4cccnc4)c3)nc2N1C1CCCC1` [Example 59, (R)-8-cyclopentyl-7-ethyl-5-methyl-2-(4-(pyridin-3-yl)-1H-imidazol-1-yl)-7,8-dihydropteridin-6(5H)-one], the pIC50 is above 6.00 at GST-PLK1, above 6.00 on GST-PLK2 (setting [1]) and 5.00 to 6.00 at GST-PLK3 (setting [2]).

`CCC1C(=O)N(C)c2cnc(-c3c[nH]nc3-c3ccc(F)cc3F)nc2N1c1ccn(C)n1` (stereo not shown) [Example 420, 2-(3-(2,4-difluorophenyl)-1H-pyrazol-4-yl)-7-ethyl-5-methyl-8-(1-methyl-1H-pyrazol-3-yl)-7,8-dihydropteridin-6(5H)-one]: the pIC50 at GST-PLK1, at GST-PLK2 (setting [1]) and on GST-PLK3 (setting [2]) was above 6.00 each time.

For the compound `CC[C@@]12COCCN1c1nc(-c3[nH]nnc3-c3ccccc3)ncc1N(C)C2=O` [Example 373, (S)-6a-ethyl-5-methyl-2-(4-phenyl-1H-1,2,3-triazol-5-yl)-6a,7,9,10-tetrahydro-[1,4]oxazino[3,4-h]pteridin-6(5H)-one], the pIC50 at GST-PLK1 was 4.30 to 5.00; at GST-PLK2 (setting [1]), 5.00 to 6.00; on GST-PLK3 (setting [2]), 5.00 to 6.00.

For `CC[C@@H]1C(=O)N(C)c2cnc(-n3ccnc3)nc2N1C1CCCC1` [Example 3, (R)-8-cyclopentyl-7-ethyl-2-(1H-imidazol-1-yl)-5-methyl-7,8-dihydropteridin-6(5H)-one], the pIC50 on GST-PLK1 is above 6.00; at GST-PLK2 (setting [1]), above 6.00; at GST-PLK3 (setting [2]), 4.30 to 5.00.

For the compound `CC[C@@H]1C(=O)N(C)c2cnc(-n3ccnc3-c3cn[nH]c3)nc2N1C1CCCC1` [Example 97, (R)-2-(2-(1H-pyrazol-4-yl)-1H-imidazol-1-yl)-8-cyclopentyl-7-ethyl-5-methyl-7,8-dihydropteridin-6(5H)-one], the pIC50 on GST-PLK1, on GST-PLK2 (setting [1]) and at GST-PLK3 (setting [2]) was above 6.00 each time.

`CC[C@@]12COCCN1c1nc(-c3cn[nH]c3-c3nccs3)ncc1N(C)C2=O` [Example 344, (S)-6a-ethyl-5-methyl-2-(5-(thiazol-2-yl)-1H-pyrazol-4-yl)-6a,7,9,10-tetrahydro-[1,4]oxazino[3,4-h]pteridin-6(5H)-one]: the pIC50 at GST-PLK1 was below 4.30; at GST-PLK2 (setting [1]), above 6.00; at GST-PLK3 (setting [2]), 4.30 to 5.00. Besides, the “PLK2 activity relative to the opposite enantiomer / other isomer” value on GST-PLK2 (comparison of resolved enantiomers, used to assign absolute configuration) is listed as “more active compound”.

With `CCC1C(=O)N(C)c2cnc(-n3ccnc3-c3ccccc3)nc2N1N1CCCC1` (stereo not shown) [Example 280, 7-ethyl-5-methyl-2-(2-phenyl-1H-imidazol-1-yl)-8-(pyrrolidin-1-yl)-7,8-dihydropteridin-6(5H)-one], the figures for the negative logarithm of the IC50 (pIC50) on GST-PLK1, at GST-PLK2 (setting [1]) and at GST-PLK3 (setting [2]) were above 6.00, above 6.00 and 4.30 to 5.00, respectively.

Regarding `CC[C@@H]1C(=O)N(C)c2cnc(-n3ccnc3-c3cncnc3)nc2N1C(C)C` [Example 149, (R)-7-ethyl-8-isopropyl-5-methyl-2-(2-(pyrimidin-5-yl)-1H-imidazol-1-yl)-7,8-dihydropteridin-6(5H)-one], the negative logarithm of the IC50 (pIC50) at GST-PLK1 was 4.30 to 5.00; at GST-PLK2 (setting [1]), above 6.00; on GST-PLK3 (setting [2]), 4.30 to 5.00.

With `CC[C@@H]1C(=O)N(C)c2cnc(-n3cnc(Br)c3)nc2N1C1CCCC1` [Example 43, (R)-2-(4-bromo-1H-imidazol-1-yl)-8-cyclopentyl-7-ethyl-5-methyl-7,8-dihydropteridin-6(5H)-one], the figures for the pIC50 on GST-PLK1, at GST-PLK2 (setting [1]) and on GST-PLK3 (setting [2]) were above 6.00, above 6.00 and 4.30 to 5.00, respectively.

Take `CC[C@]12COCCN1c1nc(-c3snnc3-c3ccc(F)cc3F)ncc1N(C)C2=O` [Example 398, (R)-2-(4-(2,4-difluorophenyl)-1,2,3-thiadiazol-5-yl)-6a-ethyl-5-methyl-6a,7,9,10-tetrahydro-[1,4]oxazino[3,4-h]pteridin-6(5H)-one]: the pIC50 on GST-PLK1, on GST-PLK2 (setting [1]) and on GST-PLK3 (setting [2]) was below 4.30 each time.

Consider `CC[C@@H]1C(=O)N(C)c2cnc(-c3ccn(C)c(=O)c3)nc2N1C1CCCC1` [Example 19, (R)-8-cyclopentyl-7-ethyl-5-methyl-2-(1-methyl-2-oxo-1,2-dihydropyridin-4-yl)-7,8-dihydropteridin-6(5H)-one], for which the figures for the pIC50 on GST-PLK1, on GST-PLK2 (setting [1]) and at GST-PLK3 (setting [2]) were above 6.00, above 6.00 and 4.30 to 5.00, respectively.

Consider `CN1C(=O)[C@]2(C)CCCN2c2nc(-n3ccnc3-c3ccccc3)ncc21` [Example 80, (S)-5,6a-dimethyl-2-(2-phenyl-1H-imidazol-1-yl)-6a,7,8,9-tetrahydropyrrolo[2,1-h]pteridin-6(5H)-one], for which the results for the pIC50 on GST-PLK1, on GST-PLK2 (setting [1]) and on GST-PLK3 (setting [2]) were 4.30 to 5.00, above 6.00 and 4.30 to 5.00, respectively.

As to `CN1C(=O)C23CCC(CC2)N3c2nc(-n3ccnc3-c3ccccc3)ncc21` [Example 308, 5-methyl-2-(2-phenyl-1H-imidazol-1-yl)-8,9-dihydro-7H-6a,9-ethanopyrrolo[2,1-h]pteridin-6(5H)-one], the figures for the pIC50 on GST-PLK1, on GST-PLK2 (setting [1]) and on GST-PLK3 (setting [2]) were 4.30 to 5.00, 5.00 to 6.00 and below 4.30, respectively.

`CC[C@@H]1C(=O)N(C)c2cnc(-c3n[nH]cc3-c3ccccc3)nc2N1C1CCCC1` [Example 245, (R)-8-cyclopentyl-7-ethyl-5-methyl-2-(4-phenyl-1H-pyrazol-3-yl)-7,8-dihydropteridin-6(5H)-one]: the pIC50 on GST-PLK1 was above 6.00; on GST-PLK2 (setting [1]) it was above 6.00; at GST-PLK3 (setting [2]) it was 5.00 to 6.00.

Consider `CN1C(=O)C23C=CC(CC2)N3c2nc(-n3ccnc3-c3ccccc3)ncc21` (stereo not shown) [Example 326, 5-methyl-2-(2-phenyl-1H-imidazol-1-yl)-9H-6a,9-ethanopyrrolo[2,1-h]pteridin-6(5H)-one], for which the pIC50 at GST-PLK1 was below 4.30; at GST-PLK2 (setting [1]), 5.00 to 6.00; on GST-PLK3 (setting [2]) it was below 4.30.

For `CC[C@@H]1C(=O)N(C)c2cnc(-n3ccc(C(=O)N(C)C)n3)nc2N1C1CCCC1` [Example 61, (R)-1-(8-cyclopentyl-7-ethyl-5-methyl-6-oxo-5,6,7,8-tetrahydropteridin-2-yl)-N,N-dimethyl-1H-pyrazole-3-carboxamide], the pIC50 at GST-PLK1, on GST-PLK2 (setting [1]) and at GST-PLK3 (setting [2]) was 5.00 to 6.00 each time.

With `CC[C@@H]1C(=O)N(C)c2cnc(-n3cnc(C)c3)nc2N1C1CCCC1` [Example 55, (R)-8-cyclopentyl-7-ethyl-5-methyl-2-(4-methyl-1H-imidazol-1-yl)-7,8-dihydropteridin-6(5H)-one], the pIC50 on GST-PLK1 is above 6.00; at GST-PLK2 (setting [1]) it was above 6.00; on GST-PLK3 (setting [2]) it was 4.30 to 5.00.

With `CC[C@@H]1C(=O)N(C)c2cnc(-c3ccncc3-c3ccccc3)nc2N1C(C)C` [Example 110, (R)-7-ethyl-8-isopropyl-5-methyl-2-(3-phenylpyridin-4-yl)-7,8-dihydropteridin-6(5H)-one], the pIC50 on GST-PLK1, on GST-PLK2 (setting [1]) and at GST-PLK3 (setting [2]) was above 6.00 each time.

For `CC[C@@H]1C(=O)N(C)c2cnc(-n3ccnc3-c3ccncc3)nc2N1C1CCOCC1` [Example 100, (R)-7-ethyl-5-methyl-2-(2-(pyridin-4-yl)-1H-imidazol-1-yl)-8-(tetrahydro-2H-pyran-4-yl)-7,8-dihydropteridin-6(5H)-one], the results for the pIC50 at GST-PLK1, on GST-PLK2 (setting [1]) and at GST-PLK3 (setting [2]) were 5.00 to 6.00, above 6.00 and 5.00 to 6.00, respectively.

In the case of `CC[C@@H]1C(=O)N(C)c2cnc(-n3ncnc3-c3ccccc3)nc2N1C(C)C` [Example 195, (R)-7-ethyl-8-isopropyl-5-methyl-2-(5-phenyl-1H-1,2,4-triazol-1-yl)-7,8-dihydropteridin-6(5H)-one], the pIC50 at GST-PLK1, at GST-PLK2 (setting [1]) and at GST-PLK3 (setting [2]) was above 6.00 throughout.
